Results on 13 molecules are retold here after paper PMC9680032, “Conformationally Locked Carbocyclic Nucleosides Built on a 4′-Hydroxymethyl-3′-hydroxybicyclo[4.1.0]heptane Template. Stereoselective Synthesis and Antiviral Activity” (The Journal of Organic Chemistry, 2022).

The subject of one data set is Adeno virus-2. The data set can be described thus: organism not typed. In kind it is cell-based. The note with it: HEL, read-out: Antiviral EC50 Adeno virus-2.
A further data set has as its system Vaccinia virus. The data set can be described thus: microbe, parasite or virus in culture. It is filed as cell-based. The note with it: Orthopoxvirus vaccinia, HEL, read-out: Antiviral EC50 Vaccinia virus.
Data set [1] relates to Influenza B virus B/Ned/537/05. The data set can be described thus: Antiviral CPE assay, Influenza B in MDCK cells. In kind it is cell-based. The note with it: Influenza B virus; MDCK cell cultures.
Data set [2] concerns Herpes simplex virus-2 (G). The data set can be described thus: microbe, parasite or virus in culture. It is filed as cell-based. The note with it: Human alphaherpesvirus 2, HEL, read-out: Antiviral EC50 Herpes simplex virus-2 (G).
The test system of the next data set is Punta Toro virus. The data set can be described thus: Antiviral CPE assay, Punta Toro virus in Vero cells. It is filed as cell-based. The note with it: Punta Toro virus, Vero.
The nature of data set [3]: Cytotoxicity in HEp-2 cell cultures (MTS). The conditions noted are these: human.
Data set [4] concerns Influenza A virus A/Ned/378/05A (H1N1). The data set can be described thus: Antiviral CPE assay, Influenza A (H1N1) in MDCK cells. It is filed as cell-based. The conditions noted are these: Influenza A virus, H1N1, MDCK.
For data set [5], the system named is Human immunodeficiency virus (IIIB). The data set can be described thus: Antiviral CPE assay, HIV-1 (IIIB) in MT-4 cells. It is filed as cell-based, human immunodeficiency virus type 1 (HIV-1). The conditions noted are these: Human immunodeficiency virus 1, IIIB, MT4.
The subject of another data set is Reo-virus-1. The data set can be described thus: Antiviral CPE assay, Reovirus-1 in Vero cells. It is filed as cell-based. The conditions noted are these: Vero.
The next data set deals with Zika virus. The data set can be described thus: Antiviral CPE assay, Zika virus in Vero cells. It is filed as cell-based. The note with it: Zika virus, Vero.
The next data set in a line: in vitro. The note with it: dog.
Data set [6] has as its system Coxsackie virus B4. The data set can be described thus: Antiviral CPE assay, Coxsackie virus B4 in Vero cells. In kind it is cell-based. The conditions noted are these: Enterovirus B, B4, Vero.
A further data set concerns Human Coronavirus (229E). The data set can be described thus: microbe, parasite or virus in culture. In kind it is cell-based. The conditions noted are these: for EC50: Human coronavirus 229E, HEL, read-out: Antiviral EC50 Human Coronavirus (229E).
The subject of data set [7] is Human immunodeficiency virus (ROD). The data set can be described thus: Antiviral CPE assay, HIV-2 (ROD) in MT-4 cells. It is filed as cell-based. The note with it: Human immunodeficiency virus 2, MT4.
Another data set relates to Sindbis virus. The data set can be described thus: Antiviral CPE assay, Sindbis virus in Vero cells. The conditions noted are these: Sindbis virus, Vero. In kind it is cell-based.
The test system of data set [8] is Coxsackie virus B4. The data set can be described thus: Antiviral CPE assay, Coxsackie virus B4 in HEp-2 cells. In kind it is cell-based. The note with it: Enterovirus B, B4, HEp-2.
The subject of data set [9] is Influenza A virus A/HK/7/87 (H3N2). The data set can be described thus: Antiviral CPE assay, Influenza A (H3N2) in MDCK cells. In kind it is cell-based. The note with it: Influenza A virus, H3N2, MDCK.
Data set [10] in a line: Cytotoxicity in Vero cell cultures (MTS). In kind it is cell-based, African green monkey. The conditions noted are these: African green monkey, Vero cells (kidney epithelial cells), uninfected, MTS assay, read-out: Cytotoxixity CC50.
Data set [11] relates to Herpes simplex virus-1 (KOS). The data set can be described thus: microbe, parasite or virus in culture. The note with it: Human alphaherpesvirus 1, HEL, read-out: Antiviral EC50 Herpes simplex virus-1 (KOS). In kind it is cell-based.
For a further data set, the system named is Yellow Fever virus. The data set can be described thus: microbe, parasite or virus in culture. In kind it is cell-based. The conditions noted are these: Yellow fever virus, Vero, read-out: Antiviral EC50 Yellow Fever virus, Vero cell cultures.
In data set [12] the test system is Respiratory syncytial virus. The data set can be described thus: Antiviral CPE assay, Respiratory syncytial virus in HEp-2 cells. It is filed as cell-based. The conditions noted are these: human respiratory syncytial virus, HEp-2.
For data set [13], the system named is Vesicular stomatitis virus. The data set can be described thus: microbe, parasite or virus in culture. It is filed as cell-based. The note with it: Vesicular stomatitis virus, HEp-2, read-out: Antiviral EC50 Vesicular stomatitis virus.
Data set [14] can be described thus: Cytotoxicity in MT-4 cell cultures (MTS). The conditions noted are these: human, Cytotoxixity CC50, MT-4 cell cultures, MTS assay. A general note: Tetrazolium dyes change colour on reduction, which living cells bring about.

Values after ≈ are worked out from the molar mass of the structure shown. A value given as a limit tells only on which side of the number the result lay.

A word on the EC50: it is the concentration at which the effect is half-maximal. Consider `Cc1cn([C@H]2C[C@H](F)[C@@H](CO)O2)c(=O)[nH]c1=O` [Alovudine, reference compound], for which the EC50 in the data set on Adeno virus-2 was 0.4 µM.

Consider `Nc1nc2c(ncn2C2CC(O)C(CO)C3CC32)c(=O)[nH]1` (stereo not drawn) [Compound 1b, 2-Amino-9-[(1′S,2′S,4′R,5′S,6′S)-4′-hydroxy-5′-(hydroxymethyl) Bicyclo[4.1.0]hept-2′-yl]-1,9-dihydro-6H-purin-6-one], for which the EC50 was over 50 µg/mL in the data set on Vaccinia virus; over 50 µg/mL in data set [1]; over 50 µg/mL in [2]; over 50 µg/mL in the data set with Punta Toro virus; over 50 µg/mL in data set [4]; over 125 µg/mL in data set [5]. Also, the EC50 with Reo-virus-1 is over 50 µg/mL; with Zika virus, over 50 µg/mL; with Coxsackie virus B4 [6], over 50 µg/mL; in the data set with Human Coronavirus (229E) it was over 50 µg/mL; in data set [7], over 125 µg/mL; in the data set with Adeno virus-2, over 50 µg/mL. Besides, the EC50 (in the data set with Sindbis virus; with Coxsackie virus B4 [8]; in data set [9]; in [11]; in the data set on Yellow Fever virus; in [12]) was over 50 µg/mL throughout. Also, the EC50 in [13] is over 50 µg/mL. The CC50 was over 50 µg/mL in data set [3], over 50 µg/mL in “in vitro”, over 50 µg/mL in data set [10] and over 125 µg/mL in data set [14].

Consider `NC(=O)c1cn(C2CC(O)C(CO)C3CC32)nn1` (stereo not drawn) [Compound 3a, 1-[(1′S,2′S,4′R,5′R,6′R)-4′-Hydroxy-5′-(hydroxymethyl)bicyclo[4.1.0]hept-2′-yl]-1H-1,2,3-triazole-4-carboxamide], for which the concentration giving a half-maximal response (EC50) in the data set on Vaccinia virus was over 50 µg/mL; in data set [1], over 50 µg/mL; in data set [2], over 50 µg/mL; with Punta Toro virus, over 50 µg/mL; in data set [4], over 50 µg/mL; in data set [5], over 125 µg/mL. In addition, the EC50 in the data set with Reo-virus-1 was over 50 µg/mL; with Zika virus it was over 50 µg/mL; in the data set on Coxsackie virus B4 [6], over 50 µg/mL; with Human Coronavirus (229E), over 50 µg/mL; in [7] it was over 125 µg/mL; in the data set with Adeno virus-2, over 50 µg/mL. The EC50 (in the data set with Sindbis virus; in the data set with Coxsackie virus B4 [8]; in [9]; in data set [11]; in the data set on Yellow Fever virus; in [12]) was over 50 µg/mL in each case. Besides, the EC50 in [13] is over 50 µg/mL. In addition, the CC50 in [3] was over 50 µg/mL; in “in vitro”, over 50 µg/mL; in [10] it was over 50 µg/mL; in data set [14], over 125 µg/mL.

With `OCC1C(O)CC(n2cc(-c3ccccc3)nn2)C2CC12` [Compound 3c, (1R,2R,3R,5S,6S)-2-(Hydroxymethyl)-5-(4″-phenyl-1H-1″,2″,3″-triazol-1-yl)bicyclo[4.1.0]heptan-3-ol], the concentration giving a half-maximal response (EC50) with Vaccinia virus was over 50 µg/mL; in data set [1], over 50 µg/mL; in data set [2] it was over 50 µg/mL; in the data set on Punta Toro virus it was over 50 µg/mL; in data set [4], over 50 µg/mL; in data set [5], over 96.2 µg/mL. For the same molecule, the EC50 in the data set on Reo-virus-1 was over 50 µg/mL; with Zika virus, over 50 µg/mL; with Coxsackie virus B4 [6], over 50 µg/mL; in the data set with Human Coronavirus (229E), over 50 µg/mL; in [7], over 96.2 µg/mL; in the data set on Adeno virus-2, over 50 µg/mL. In addition, the EC50 (in the data set with Sindbis virus; with Coxsackie virus B4 [8]; in data set [9]; in [11]; in the data set on Yellow Fever virus; in [12]) was over 50 µg/mL throughout. The EC50 in data set [13] is over 50 µg/mL. Also, the CC50 in [3] was over 50 µg/mL; in the data set “in vitro” it was 20.4 µg/mL; in data set [10], over 50 µg/mL; in data set [14], 96.2 µg/mL (≈ 337 µM).

For the molecule `OCc1cn(C2CC(O)C(CO)C3CC32)nn1` [Compound 3e, (1R,2R,3R,5S,6S)-2-(Hydroxymethyl)-5-[4″-(hydroxymethyl)-1H-1″,2″,3″-triazol-1‴-yl]bicyclo[4.1.0]heptan-3-ol], the EC50 with Vaccinia virus was over 50 µg/mL; in data set [1] it was over 50 µg/mL; in data set [2], over 50 µg/mL; in the data set with Punta Toro virus, over 50 µg/mL; in [4] it was over 50 µg/mL; in data set [5] it was over 116 µg/mL. In addition, the 50% effective concentration (EC50) is over 50 µg/mL with Reo-virus-1; over 50 µg/mL in the data set with Zika virus; over 50 µg/mL in the data set with Coxsackie virus B4 [6]; over 50 µg/mL in the data set with Human Coronavirus (229E); over 116 µg/mL in data set [7]; over 50 µg/mL with Adeno virus-2. The EC50 (in the data set with Sindbis virus; with Coxsackie virus B4 [8]; in data set [9]; in data set [11]; with Yellow Fever virus; in [12]) was over 50 µg/mL each time. Also, the EC50 in data set [13] was over 50 µg/mL. The CC50 in data set [3] is over 50 µg/mL; in the data set “in vitro”, over 50 µg/mL; in [10] it was over 50 µg/mL; in [14], at least 116 µg/mL.

Turning to `O=c1[nH]cnc2c1ncn2[C@H]1CC[C@@H](CO)O1` [Didanosine, reference compound], the EC50 came out at 17.9 µg/mL (≈ 76 µM) in [5] and 19.4 µg/mL (≈ 82.1 µM) in [7]. In addition, in [14], the CC50 was over 50 µg/mL.

Consider `COc1c(C)c2c(c(O)c1C/C=C(\C)CCC(=O)O)C(=O)OC2` [Mycophenolic acid, reference compound], for which the EC50 in the data set on Punta Toro virus was over 100 µM; with Reo-virus-1 it was 7.1 µM; with Zika virus, 0.2 µM; in the data set on Coxsackie virus B4 [6] it was over 100 µM; in the data set on Sindbis virus, 3.6 µM; in the data set with Yellow Fever virus, 2.6 µM. Moreover, the CC50 in data set [10] was over 100 µM.

For `NC(=O)c1ncn([C@@H]2O[C@H](CO)[C@@H](O)[C@H]2O)n1` [Ribavirin, reference compound], the EC50 was determined as 9.3 µM in [1]; 7.4 µM in [4]; 117 µM with Coxsackie virus B4 [8]; 6.4 µM in [9]; 6.7 µM in [12]; 149 µM in [13]. Moreover, the CC50 in [3] was over 250 µM; in “in vitro”, over 100 µM.

With `CC(N)C12CC3CC(CC(C3)C1)C2` (stereo not shown) [Rimantadine, reference compound], the EC50 is over 200 µM in data set [1], 88.8 µM in data set [4] and 0.06 µM in data set [9]. In “in vitro”, this molecule yielded a CC50 of over 200 µM.

Take `Nc1ccn([C@H]2CC[C@@H](CO)O2)c(=O)n1` [Zalcitabine, reference compound]: in the data set with Adeno virus-2, the EC50 was 12 µM.

`CC(=O)N[C@H]1[C@H]([C@H](O)[C@H](O)CO)OC(C(=O)O)=C[C@@H]1N=C(N)N` [Zanamivir, reference compound]: the EC50 turned out to be 1.4 µM in data set [1], 0.9 µM in data set [4] and 4.9 µM in [9]. Also, the CC50 in “in vitro” was over 100 µM.

Consider `Cc1cn([C@H]2C[C@H](N=[N+]=[N-])[C@@H](CO)O2)c(=O)[nH]c1=O` [Zidovudine, reference compound], for which the EC50 in [5] and in data set [7] was 0.002 µg/mL (≈ 0.00748 µM) each time. Besides, in data set [14], the CC50 is over 2 µg/mL.

B1: UDA: reference agent against Human Coronavirus (229E) in Table S1 (protein, UniProt P11218 24-372, looked up)
Lectin/endochitinase 1: QRCGSQGGGGTCPALWCCSIWGWCGDSEPYCGRTCENKCWSGERSDHRCGAAVGNPPCGQDRCCSVHGWCGGGNDYCSGSKCQYRCSSSVRGPRVALSGNSTANSIGNVVVTEPLFDQMFSHRKDCPSQGFYSYHSFLVAAESFPAFGTIGDVATRKREVAAFLAHISQATSGERSDVENPHAWGLCHINTTTVTENDFCTSSDWPCAAGKKYSPRGPIQLTHNFNYGLAGQAIGEDLIQNPDLVEKDPIISFKTALWFWMSQHDNKPSCHDIVLNANSAANRIPNKGVIGNIISRAFGHDDFAVRSSSIGFYKRYCDMLGVSYGHDLKYWFDNTPSSEFQRIQMRVAA
As for B1, the “Antiviral EC50 Human Coronavirus (229E)” value with Human Coronavirus (229E) (HEL cell cultures) came to 1.2 µg/mL.
